Data as given in patent publication US9359346B2, “Benzamide derivative and use thereof” (VIVOZON, INC., priority 2011, dated 2016).
Like-named read-outs stand apart in the source and are kept apart here.

Tests used:
GlyT2 = molecular target: T1, GlyT2 (Rattus norvegicus, UniProt P58295); assay: FLIPR membrane potential assay for GlyT2 target activity (T-rex-293-rGlyT2 cells); format: cell-based; conditions: for inhibition at 10 µM: read-out: GlyT2 % inhibition
T1 construct: expressed in transfected cells
T1 sequence (P58295 1-799): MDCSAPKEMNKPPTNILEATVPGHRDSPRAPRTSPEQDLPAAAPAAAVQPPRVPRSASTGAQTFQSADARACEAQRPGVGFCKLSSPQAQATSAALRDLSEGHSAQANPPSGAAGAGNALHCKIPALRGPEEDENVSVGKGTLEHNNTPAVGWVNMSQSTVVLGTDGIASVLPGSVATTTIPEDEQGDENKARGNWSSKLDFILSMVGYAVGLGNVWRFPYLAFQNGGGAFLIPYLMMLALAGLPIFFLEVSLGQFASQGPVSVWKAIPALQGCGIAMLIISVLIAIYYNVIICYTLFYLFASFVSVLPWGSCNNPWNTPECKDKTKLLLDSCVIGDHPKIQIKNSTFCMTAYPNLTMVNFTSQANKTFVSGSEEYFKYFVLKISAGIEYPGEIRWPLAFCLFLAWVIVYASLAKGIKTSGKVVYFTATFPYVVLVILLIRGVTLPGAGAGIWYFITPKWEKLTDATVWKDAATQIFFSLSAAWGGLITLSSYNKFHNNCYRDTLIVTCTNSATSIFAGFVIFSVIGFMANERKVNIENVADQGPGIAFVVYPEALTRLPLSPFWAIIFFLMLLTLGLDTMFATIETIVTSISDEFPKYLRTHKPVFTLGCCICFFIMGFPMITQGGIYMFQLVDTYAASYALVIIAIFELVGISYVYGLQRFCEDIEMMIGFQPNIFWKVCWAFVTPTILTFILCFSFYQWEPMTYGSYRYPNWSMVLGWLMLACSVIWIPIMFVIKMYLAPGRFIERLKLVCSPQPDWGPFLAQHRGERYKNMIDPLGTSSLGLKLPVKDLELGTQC
Experimental: GlyT2 (Glycine transporter type 2) is an electrogenic carrier associated with Na^+/Cl^− ion transportation, primarily distributed around the spinal cord part, and has an important role in the transfer of a pain signal in the spinal cord.
In order to identify the fact that the novel compound of the present invention has GlyT2 targeting activity, a membrane potential assay was performed. FLIPR Membrane Potential Assay is used to measure ion channel modulation caused by an increase or decrease in fluorescence signal due to variations of cellular membrane potential.
First, pcDNA4/TO vector encoding GlyT2 of the rat in HEK293 cell was transfected to prepare a stable recombinant cell line, i.e., T-rex-293-rGlyT2. A […] (Greiner #655090) coated with poly-D-lysine was prepared, and the above recombinant cells (T-rex-293-rGlyT2) were seeded at 3.2×10^4/well therein using a medium containing 15 μg/ml of tetracycline. After this, incubation was conducted at 37° C. for 48 hours under 5% CO2 conditions to express GlyT2. 10 ml of assay buffer (1×HBSS, 20 mM HEPES, pH 7.4) was added to a blue dye solution and sufficiently dissolved therein to prepare a membrane potential dye solution. After removing the medium from the well showing GlyT2 expression, the membrane potential dye solution was added to the well in an amount of 100 μl/well and incubated for 20 minutes.
According to the FLIPR Membrane Potential Assay kit's protocol, SoftMax Pro Software of FlexStation 3 software (Molecular Devices, US) was set up. An extent of GlyT2 expression was determined such that the extent of cellular membrane depolarization relative to an administered amount of glycine during glycine treatment is indicated in relative fluorescence units (RFU), and RFU (Max-Min) is calculated by subtracting the minimum value from the maximum value of RFU. After firstly treating 10 uM of the novel compound according to the present invention, glycine was treated and RFU (Max-Min) for glycine administration was determined. Then, with the determined result, the extent of depolarization inhibition (% inhibition) was assessed for each compound, compared to a positive control.
The positive control used herein was ORG25543 (500 nM) having strong inhibitory efficacy specific to GlyT2.
For GlyT2 inhibitory efficacy, the efficacy of the compound ORG25543 (500 nM) was defined as 100%. Similarly, for 5HT2A inhibitory efficacy, the efficacy of MDL11939 (100 nM) was defined as 100%. Therefore, the target inhibitory efficacy of each compound was indicated in a relative value compared to the above defined efficacy.

5HT2A = 5HT2A (Homo sapiens, UniProt P28223); assay: FLIPR calcium assay for 5HT2A target activity (transfected HEK293 cells); format: cell-based
5HT2A, sequence (P28223 whole entry, species assumed): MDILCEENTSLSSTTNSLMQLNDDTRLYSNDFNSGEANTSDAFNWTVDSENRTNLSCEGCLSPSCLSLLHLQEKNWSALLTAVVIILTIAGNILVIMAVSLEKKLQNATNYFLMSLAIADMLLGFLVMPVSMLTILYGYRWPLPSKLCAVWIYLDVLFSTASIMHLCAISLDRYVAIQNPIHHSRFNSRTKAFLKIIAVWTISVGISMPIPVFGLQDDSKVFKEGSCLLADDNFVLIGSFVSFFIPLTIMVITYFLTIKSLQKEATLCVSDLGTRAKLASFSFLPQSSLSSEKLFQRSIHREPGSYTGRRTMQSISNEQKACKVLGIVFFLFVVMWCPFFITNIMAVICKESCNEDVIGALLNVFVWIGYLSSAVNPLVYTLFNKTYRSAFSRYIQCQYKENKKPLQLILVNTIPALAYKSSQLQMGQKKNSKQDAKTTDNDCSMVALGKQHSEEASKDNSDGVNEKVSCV

[1] = system: neuropathic pain model (Chung model); assay: Neuropathic pain model (Chung model, SNL), paw withdrawal threshold; format: in vivo, rat; conditions: subcutaneous 50 mg/kg or oral 100 mg/kg; gabapentin 55 to 70 mg/kg intraperitoneal; FIGS. 1 to 22
[2] = 10 uM compound, then glycine, relative to ORG25543 (500 nM) defined as 100%
[3] = HEK293, 10 uM compound, then serotonin, relative to MDL11939 (100 nM) defined as 100%, read-out: 5HT2A % inhibition
[4] = HEK293, read-out: 5HT2A % inhibition

Compound	inhibition at 10 µM (GlyT2; [2]) [%]	inhibition at 10 µM (5HT2A; [3]) [%]	inhibition at 10 µM (GlyT2) [%]	inhibition at 10 µM (5HT2A; [4]) [%]	also measured
COc1cc(C(=O)NCC(c2ccccc2)N(C)C)cc(OC)c1OCc1ccccc1 (centres unmarked) [VVZ-010]					GlyT2 % inhibition (GlyT2): 102.5%; 5HT2A % inhibition (5HT2A): 108.1%
COc1cc(C(=O)NCC2CCCCN2C)cc(OC)c1OCc1ccccc1 (centres unmarked) [VVZ-009]	117	90.4			
COc1ccc(C(CNC(=O)c2cc(OC)c(OCc3ccccc3)c(OC)c2)N2CCCC2)cc1 (centres unmarked) [VVZ-015]	108	57			
CCCCOc1c(OC)cc(C(=O)NCC2(N3CCN(C)CC3)CCCCC2)cc1OC [VVZ-032]					analgesic efficacy compared to GBP positive control [1]: analgesic efficacy substantially equal to 0 °C superior to GBP
COc1cc(N)c(Cl)cc1C(=O)NCC1(O)CCN(C)CC1 [VVZ-055]	55.3	146			
COc1cc(C(=O)NCC(c2ccccc2)N2CCOCC2)cc(OC)c1OCc1ccccc1 (centres unmarked) [VVZ-018]			76.8	70.7	
COc1cc(C(=O)NCC(c2ccccc2)N(C)C)cc(OC)c1OCc1ccccc1 (centres unmarked) [VVZ-020]			103	94.1	
Cc1cc(C(=O)NCC(c2ccccc2)N(C)C)cc(C)c1OCc1ccccc1 (centres unmarked) [VVZ-046]			113	54.2	
Cc1cc(C(=O)NCC2(N(C)C)CCC(F)(F)CC2)cc(C)c1OCc1ccccc1 [VVZ-058]			102	134	
COc1cc(C(=O)N[C@H]2CN3CCC2CC3)cc(OC)c1OCc1ccccc1 [VVZ-003]	78.2	31.6			
CCCCOc1ccc(C(=O)NCC(c2ccccc2)N(C)C)cc1 (centres unmarked) [VVZ-052]			76.6	103	
COc1cc(C(=O)NCC(c2ccccc2)N2CCCC2)cc(OC)c1OCc1ccccc1 (centres unmarked) [VVZ-035]	84.8	101			
COc1cc(C(=O)NCC2(N(C)C)CCCCC2)cc(OC)c1OCc1ccccc1 [VVZ-037]			100	99.8	
O=C(NCC1(N2CCOCC2)CCOCC1)c1ccc(OCc2ccccc2)cc1 [VVZ-076]			50.6	113	
CCN1CCC[C@H]1CNC(=O)c1cc(OC)c(OCc2ccccc2)c(OC)c1 [VVZ-014]	75	93.6			
CN(C)C(CNC(=O)c1ccc(OCc2ccccc2)cc1)c1ccccc1 (centres unmarked) [VVZ-051]			110	95	
COc1cc(C(=O)NCCN2CCOCC2)cc(OC)c1OCc1ccccc1 [VVZ-006]	48.9			89.8	
CN(C)C1(CNC(=O)c2cccc(C(F)(F)F)c2)CCC(F)(F)CC1 [VVZ-062]					analgesic efficacy compared to GBP positive control [1]: analgesic efficacy substantially equal to 0 °C superior to GBP
Cc1cc(C(=O)NCC2(N3CCN(C)CC3)CCCCC2)cc(C)c1OCc1ccccc1 [VVZ-063]			112	76.7	
CN(C)C1(CNC(=O)c2ccc(OCc3ccccc3)cc2)CCOCC1 [VVZ-038]			108	96.1	analgesic efficacy compared to GBP positive control [1]: analgesic efficacy substantially equal to 0 °C superior to GBP
CN(C)C(CNC(=O)c1cccc(C(F)(F)F)c1)c1ccccc1 (centres unmarked) [VVZ-078]					analgesic efficacy compared to GBP positive control [1]: analgesic efficacy substantially equal to 0 °C superior to GBP
CCCCOc1c(C)cc(C(=O)NCC(c2ccccc2)N(C)C)cc1C (centres unmarked) [VVZ-057]			101	65.7	
O=C(c1cccc(C(F)(F)F)c1)N1CCN(CCc2ccccc2)CC1 [VVZ-042]	34.4	107			

Compound	inhibition at 10 µM (GlyT2; [2]) [%]	inhibition at 10 µM (5HT2A; [3]) [%]	inhibition at 10 µM (GlyT2) [%]	inhibition at 10 µM (5HT2A; [4]) [%]	also measured
COc1cc(C(=O)N[C@@H]2CCN(Cc3ccccc3)C2)cc(OC)c1OCc1ccccc1 [VVZ-011]	88.8	56.2			
Cc1cc(C(=O)NCC2(O)CCN(C)CC2)cc(C)c1OCc1ccccc1 [VVZ-054]	82.9	57.1			
CCCCOc1c(C)cc(C(=O)NCC2(O)CCN(C)CC2)cc1C [VVZ-053]	59.6	31.4			
COc1cc(C(=O)NCC2(N(C)C)CCOCC2)cc(OC)c1OCc1ccccc1 [VVZ-036]			103	66.1	
COc1cc(N)c(Cl)cc1C(=O)N[C@H]1CN2CCC1CC2 [VVZ-047]	23.4	78.8			
CN1CCN(C2(CNC(=O)c3ccc(OCc4ccccc4)cc3)CCCCC2)CC1 [VVZ-069]			83.9	150	
COc1cc(C(=O)NCC2(NCc3ccccc3)CCOCC2)cc(OC)c1OCc1ccccc1 [VVZ-084]	79	94.4			
CCCCOc1c(OC)cc(C(=O)NCC(c2ccccc2)N(C)C)cc1OC (centres unmarked) [VVZ-033]			105	97.1	
COc1cc(C(=O)NCC(=O)N2CCC(C)CC2)cc(OC)c1OCc1ccccc1 [VVZ-040]					analgesic efficacy compared to GBP positive control [1]: analgesic efficacy substantially equal to 0 °C superior to GBP
COc1cc(C(=O)NC2CCN(Cc3ccccc3)C2)cc(OC)c1OCc1ccccc1 (centres unmarked) [VVZ-013]	72.9	48.5			
CCN(C)C1(CNC(=O)c2cc(OC)c(OCc3ccccc3)c(OC)c2)CC=C(F)CC1 (centres unmarked) [VVZ-050]	117	108			
CN1CCN(C2(CNC(=O)c3ccc(OCc4ccccc4)cc3)CCOCC2)CC1 [VVZ-072]			59.1	101	
COc1cc(C(=O)NCC2(N(C)C)CC=C(F)CC2)cc(OC)c1OCc1ccccc1 (centres unmarked) [VVZ-028]	87.9			93.9	
Cc1cc(C(=O)NC(CN2CCOCC2)c2ccccc2)cc(C)c1OCc1ccccc1 (centres unmarked) [VVZ-080]	40.6	113			
CCCCOc1c(OC)cc(C(=O)NC[C@H]2CCCN2CC)cc1OC [VVZ-029]	46	71.3			
CCCCOc1c(OC)cc(C(=O)Nc2nnc(C)s2)cc1OC [VVZ-025]					analgesic efficacy compared to GBP positive control [1]: analgesic efficacy substantially equal to 0 °C superior to GBP
COc1cc(C(=O)NCC2(N3CCN(C)CC3)CCOCC2)cc(OC)c1OCc1ccccc1 [VVZ-071]			78.8	60.8	
COc1cc(C(=O)NCC2(N(C)C)CCC(F)(F)CC2)cc(OC)c1OCc1ccccc1 [VVZ-016]			109	97.5	
CN(C)C1(CNC(=O)c2ccc(OCc3ccccc3)cc2)CCOCC1 [VVZ-065]					GlyT2 % inhibition (GlyT2): 105.1%; 5HT2A % inhibition (5HT2A): 107.8%
COc1cc(C(=O)NCC2(N3CCOCC3)CCOCC2)cc(OC)c1OCc1ccccc1 [VVZ-074]			73.5	155	
O=C(NCC(c1ccccc1)N1CCOCC1)c1ccc(OCc2ccccc2)cc1 (centres unmarked) [VVZ-081]			45.3	71.5	
CCN1CCC[C@@H]1CNC(=O)c1cc(OC)c(OCc2ccccc2)c(OC)c1 [VVZ-012]	118	76.1			
